Assay results from publication PMC12635268, “Novel antimicrobial peptides and peptide-microbiome crosstalk in Appalachian salamander skin” (NPJ Biofilms and Microbiomes, 2025).
Read-outs that look alike come from different tables or passages of the source. Ends that are not written are not given here.

Legend:
[1] = system: S. aureus ATCC 25923; assay: microbe, parasite or virus in culture
Outline: (§1)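 Broth microdilution in cation-adjusted Mueller-Hinton broth, final inoculum 1 × 10⁵ CFU/mL, peptides 0.25 to 128 μg/mL in 0.02% TFA + 0.04% BSA. Duplicates incubated 20 h at 37 °C without agitation. MIC read visually per CLSI with image-analysis support.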

[2] = system: E. coli ATCC 35218; assay: microbe, parasite or virus in culture; conditions: E. coli 35218; Week 2 (12/14/2023)
Outline: as §1

[3] = system: E. cloacae ATCC 35549; assay: microbe, parasite or virus in culture
Outline: as §1

[4] = system: E. faecium ATCC 19434; assay: microbe, parasite or virus in culture
Outline: as §1

[5] = system: A. baumannii ATCC 17978; assay: microbe, parasite or virus in culture
Outline: as §1

[6] = system: E. faecium ATCC 49224; assay: microbe, parasite or virus in culture
Outline: as §1

[7] = system: E. cloacae ATCC 13047; assay: microbe, parasite or virus in culture
Outline: as §1

[8] = system: E. coli ATCC 43888; assay: microbe, parasite or virus in culture
Outline: as §1

[9] = system: P. aeruginosa MRSN 5519; assay: microbe, parasite or virus in culture
Outline: as §1

[10] = system: K. pneumoniae ATCC 13883; assay: microbe, parasite or virus in culture
Outline: as §1

[11] = system: S. aureus ATCC 43300; assay: microbe, parasite or virus in culture; conditions: S. aureus 43300; Week 2 (12/14/2023)
Outline: as §1

[12] = system: P. aeruginosa ATCC 27853; assay: microbe, parasite or virus in culture
Outline: as §1

[13] = system: A. baumannii ATCC 19606; assay: microbe, parasite or virus in culture
Outline: as §1

[14] = system: K. pneumoniae ATCC 700603; assay: microbe, parasite or virus in culture; conditions: K. pneumoniae 700603; Week 2 (12/14/2023)
Outline: as §1

[15] = system: P. aeruginosa PA01; assay: microbe, parasite or virus in culture; type: cell-based; conditions: P. aeruginosa 15692 (PAO1); Week 2 (12/14/2023)
Protocol: Antimicrobial susceptibility testing of the 20 synthesized peptides against 17 bacterial strains of clinical relevance in the ESKAPEE panel was conducted using minimum inhibitory concentration (MIC) assays following the broth microdilution method outlined by Parker et al.[91]. The ESKAPEE panel is comprised of fourteen American Type Culture Collection (ATCC) strains and three Multidrug Resistant Organism Repository and Surveillance Network (MRSN) bacterial strains. These strains represent at least one drug-susceptible strain and one drug-resistant strain for each bacterium to assess drug efficacy across various resistance mechanisms. This panel is comprised of the following bacterial species and strains: E. faecium (ATCC 19434, ATCC 49224), S. aureus (ATCC 25923, ATCC 43300), K. pneumoniae (ATCC 700603, ATCC 13883, MRSN 1320), A. baumannii (ATCC 17978, ATCC 19606, MRSN 959), P. aeruginosa (ATCC 15692, ATCC 27853, MRSN 5519), E. cloacae (ATCC 13047, ATCC 35549), and E. coli (ATCC 35218, ATCC 43888). Bacteria were grown in cation-adjusted Mueller-Hinton broth (CAMHB) to achieve a final inoculum of 1 × 10⁵ CFU/mL. CAMHB is selected for its batch-to-batch reproducibility, low levels of antimicrobial inhibitors, and ability to support the growth of most bacterial pathogens.
Briefly, lyophilized peptides were dissolved in 0.2% TFA + 0.4% BSA in water to 2.56 mg/mL, ultrasonicated for 20 min, diluted 10-fold into CAMHB, and then serially diluted 2-fold in 0.02% TFA + 0.04% BSA in CAMHB and assayed at a concentration of 0.25 to 128 μg/mL. Assays were set up using the Tecan Freedom EVO liquid handling robot and software (Tecan, Switzerland) with 50 μL of bacterial inoculum and 50 μL of peptide transferred into round-bottom 96-well microtiter plates. Each plate assay was performed in duplicate and incubated at 37 °C for 20 h without agitation. Bacterial growth was assessed using the BIOMIC V3 Image Analysis system (Giles Scientific, USA) and the MIC values were determined visually according to the Clinical and Laboratory Standards Institute (CLSI) guidelines.

[16] = system: K. pneumoniae 4640
[17] = system: P. aeruginosa PA01 (Si); assay: microbe, parasite or virus in culture; type: cell-based
Source text: Supplement 41522_2025_837_MOESM13_ESM.xlsx, sheet "Table_S13_ESKAPEE-MIC" | column: Bacterial MIC (µg/mL)

[18] = design: method as in Biomatik (vendor); conditions: 1.0 mg peptide in 1.0 ml solvent; peptides synthesized by Biomatik; ref Biomatik (vendor); cited from earlier work
[19] = system: A. baumannii 5075; conditions: Week 2 (12/14/2023)
[20] = system: Batrachochytrium dendrobatidis Bd-GPL strain JEL404; conditions: slope of growth, positive = inhibition, negative = no inhibition
Protocol: Bd-peptide challenge assays were conducted with the crude peptides extracted from the salamander skin secretions and with the 20 synthesized peptides. We followed methods by Pereria et al.[49] to conduct assays with the crude peptides using Bd-GPL strain JEL404 at 1 × 10^6 zoospores/mL. Briefly, skin peptide samples were pooled together based on species-site-injection (Table 1). Skin peptides samples were serially diluted 2-fold in MilliQ (Ultrapure Type 1) water and assayed at a concentration of 2.35–75 μg/mL based on starting peptide concentration available. For synthesized peptides, we conducted assays from 15.6 to 500 μg/ml. In both assays, we quantified percent inhibition of each well using slope of growth[90] in which positive values indicate inhibition and negative values indicate no inhibition.

## RMIRRPPGFTPFR [PrAd-Eb10]
[1]; S. aureus 25923, Week 2 (12/14/2023)
  Bacterial MIC: >128.000 µg/mL
[2]
  Bacterial MIC: >128.000 µg/mL
[3]; E. cloacae 35549, Week 2 (12/14/2023)
  Bacterial MIC: >128.000 µg/mL
[4]; E. faecium 19434, Week 2 (12/14/2023)
  Bacterial MIC: >128.000 µg/mL
[5]; A. baumannii 17978, Week 2 (12/14/2023)
  Bacterial MIC: >128.000 µg/mL
[6]; E. faecium 49224, Week 2 (12/14/2023)
  Bacterial MIC: >128.000 µg/mL
[7]; E. cloacae 13047, Week 2 (12/14/2023)
  Bacterial MIC: >128.000 µg/mL
[8]; E. coli 43888, Week 2 (12/14/2023)
  Bacterial MIC: >128.000 µg/mL
[9]; P. aeruginosa 5519, Week 2 (12/14/2023)
  Bacterial MIC: >128.000 µg/mL
[10]; K. pneumoniae 13883, Week 2 (12/14/2023)
  Bacterial MIC: >128.000 µg/mL
[11]
  Bacterial MIC: >128.000 µg/mL
[12]; P. aeruginosa 27853, Week 2 (12/14/2023)
  Bacterial MIC: >128.000 µg/mL
[13]; A. baumannii 19606, Week 2 (12/14/2023)
  Bacterial MIC: >128.000 µg/mL
[14]
  Bacterial MIC: >128.000 µg/mL
[15]
  Bacterial MIC: >128.000 µg/mL
[16]; K. pneumoniae 4640, Week 2 (12/14/2023)
  Bacterial MIC: >128.000 µg/mL
[17]; P. aeruginosa PA01 (Si), not typical ESKAPEE strain, Week 2 (12/14/2023)
  Bacterial MIC: >128.000 µg/mL
[18]
  Suggest solvent (solubility): 1.0mg peptide soluble in 1.0ml H2O
[19]
  Bacterial MIC: >128.000 µg/mL
[20]; synthesized peptide 15.625 μg/mL
  Bd inhibition score (percent inhibition), mean: -10.4305%
[20]; synthesized peptide 31.25 μg/mL
  Bd inhibition score (percent inhibition), mean: -6.071%
[20]; synthesized peptide 62.5 μg/mL
  Bd inhibition score (percent inhibition), mean: -6.0656%
[20]; synthesized peptide 125 μg/mL
  Bd inhibition score (percent inhibition), mean: -13.7553%
[20]; synthesized peptide 250 μg/mL
  Bd inhibition score (percent inhibition), mean: -14.8924%
[20]; synthesized peptide 500 μg/mL
  Bd inhibition score (percent inhibition), mean: -12.1229%

## SGLRGSL [PrMb-Eb19]
[1]; ATCC 25923, 20 h
  Bacterial MIC: >128.000 µg/mL
[2]
  Bacterial MIC: >128.000 µg/mL
[3]; ATCC 35549, 20 h
  Bacterial MIC: >128.000 µg/mL
[4]; ATCC 19434, 20 h
  Bacterial MIC: >128.000 µg/mL
[5]; ATCC 17978, 20 h
  Bacterial MIC: >128.000 µg/mL
[6]; ATCC 49224, 20 h
  Bacterial MIC: >128.000 µg/mL
[7]; ATCC 13047, 20 h
  Bacterial MIC: >128.000 µg/mL
[8]; ATCC 43888, 20 h
  Bacterial MIC: >128.000 µg/mL
[9]; MRSN 5519, 20 h
  Bacterial MIC: >128.000 µg/mL
[10]; ATCC 13883, 20 h
  Bacterial MIC: >128.000 µg/mL
[11]
  Bacterial MIC: >128.000 µg/mL
[12]; ATCC 27853, 20 h
  Bacterial MIC: >128.000 µg/mL
[13]; ATCC 19606, 20 h
  Bacterial MIC: >128.000 µg/mL
[14]
  Bacterial MIC: >128.000 µg/mL
[15]
  Bacterial MIC: >128.000 µg/mL
[16]; 4640, 20 h
  Bacterial MIC: >128.000 µg/mL
[17]; Si
  Bacterial MIC: >128.000 µg/mL
[18]
  Suggest solvent (solubility): 1.0mg peptide soluble in 1.0ml H2O
[19]
  Bacterial MIC: >128.000 µg/mL
[20]; synthesized peptide 62.5 μg/mL
  Bd inhibition score (percent inhibition), mean: -38.0157%
